According to US20260070945A1, “MACROCYCLIC IMMUNOMODULATORS” (Bristol-Myers Squibb Company, priority 2022, published 2026):
Where a SMILES comes first, the peptide text is derived from it. Bridges are numbered along the chain shown (N, C = ends). [ ]: non-standard residue; d: D form. The star is where a group is joined. Phe(4-COOH) = N[C@@H](Cc1ccc(C(=O)O)cc1)C(=O)O; Bip = N[C@@H](Cc1ccc(-c2ccccc2)cc1)C(=O)O; NH(CH2)14COOH = O=C(O)CCCCCCCCCCCCCCN*; Phe(3-Me) = Cc1cccc(C[C@H](N)C(=O)O)c1; NH(CH2)12COOH = O=C(O)CCCCCCCCCCCCN*; Val(3-OH) = CC(C)(O)[C@H](N)C(=O)O; 4Pal = N[C@@H](Cc1ccncc1)C(=O)O; Cha = N[C@@H](CC1CCCCC1)C(=O)O; NMeA = CN[C@@H](C)C(=O)O; Aun = NCCCCCCCCCCC(=O)O; Dab = NCC[C@H](N)C(=O)O; AEEA = NCCOCCOCC(=O)O

Target: T1, PD-1/PD-L1 interaction (PE-labeled human PD-L1-Ig binding to Jurkat cell line over-expressing human PD-1) (Homo sapiens, UniProt Q15116)
T1 construct: expressed in transfected cells; host or cells: Jurkat
T1 sequence (Q15116 25-288): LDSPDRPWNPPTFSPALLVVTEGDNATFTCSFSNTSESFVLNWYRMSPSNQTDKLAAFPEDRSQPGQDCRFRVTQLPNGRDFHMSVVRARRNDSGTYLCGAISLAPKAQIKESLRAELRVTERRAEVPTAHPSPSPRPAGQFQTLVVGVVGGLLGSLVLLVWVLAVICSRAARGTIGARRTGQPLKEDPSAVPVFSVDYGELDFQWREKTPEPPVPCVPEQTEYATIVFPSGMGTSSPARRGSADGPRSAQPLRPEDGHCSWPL
Assay: Jurkat-PD-1 Cell Binding High-Content Screening Assay (CBA)
Conditions: Jurkat-hPD-1 cells, PE-labeled PD-L1-Ig 20 nM final; read-out: Jurkat HPD1 PDL1 IC50
Procedure, shortened: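 Cells 8×10^3/well, DMEM + 10% FCS; cpd 2 h, 37 °C; PE–PD-L1-Ig 20 nM final, 1 h; PFA fix + Hoechst 33342, 3× dPBS wash; high-content imager.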

IC50 [nM]	Compound
143	CC(C)C[C@@H]1NC(=O)[C@H](Cc2c[nH]c3ccccc23)NC(=O)[C@H](CC(=O)O)NC(=O)[C@H](Cc2ccc(C(=O)O)cc2)NC(=O)[C@H](Cc2ccncc2)NC(=O)CSC[C@@H](C(=O)N[C@@H](CCN)C(=O)NCCOCCOCC(=O)NCCCCCCCCCCC(=O)O)NC(=O)[C@H](CCC(=O)O)NC(=O)[C@H](C(C)(C)O)NC(=O)[C@H](CC2CCCCC2)NC(=O)[C@H](CCN)NC(=O)[C@@H](CC(C)C)NC(=O)[C@H](C)N(C)C(=O)[C@H](C(C)C)NC(=O)[C@H](Cc2ccc(-c3ccccc3)cc2)NC1=O [Example 1429] ({CH2CO}-[4Pal][Phe(4-COOH)]DWL[Bip]V[NMeA][dL][Dab][Cha][Val(3-OH)]EC[Dab][AEEA][Aun]-OH; thioether N-14)
42.7	Cc1cccc(C[C@@H]2NC(=O)[C@H](CC(=O)O)NC(=O)[C@H](Cc3ccc(C(=O)O)cc3)NC(=O)[C@H]([C@@H](C)O)NC(=O)CSC[C@@H](C(=O)N[C@@H](CCN)C(=O)NCCOCCOCC(=O)NCCOCCOCC(=O)NCCCCCCCCCCCCC(=O)O)NC(=O)[C@H](CCC(=O)O)NC(=O)[C@H](C(C)(C)O)NC(=O)[C@H](CC3CCCCC3)NC(=O)[C@H](CCN)NC(=O)[C@@H](CC(C)C)NC(=O)[C@H](C)N(C)C(=O)[C@H](Cc3ccc(C(=O)O)cc3)NC(=O)[C@H](Cc3ccc(-c4ccccc4)cc3)NC(=O)[C@H](Cc3ccc(C(=O)O)cc3)NC2=O)c1 [Example 1430] ({CH2CO}-T[Phe(4-COOH)]D[Phe(3-Me)][Phe(4-COOH)][Bip][Phe(4-COOH)][NMeA][dL][Dab][Cha][Val(3-OH)]EC[Dab][AEEA][AEEA]-{NH(CH2)12COOH}; thioether N-14)
962	Cc1cccc(C[C@@H]2NC(=O)[C@H](CC(=O)O)NC(=O)[C@H](Cc3ccc(C(=O)O)cc3)NC(=O)[C@H]([C@@H](C)O)NC(=O)CSC[C@@H](C(=O)N[C@@H](CCN)C(=O)NCCOCCOCC(=O)NCCOCCOCC(=O)NCCCCCCCCCCCCCCC(=O)O)NC(=O)[C@H](CCC(=O)O)NC(=O)[C@H](C(C)(C)O)NC(=O)[C@H](CC3CCCCC3)NC(=O)[C@H](CCN)NC(=O)[C@@H](CC(C)C)NC(=O)[C@H](C)N(C)C(=O)[C@H](Cc3ccc(C(=O)O)cc3)NC(=O)[C@H](Cc3ccc(-c4ccccc4)cc3)NC(=O)[C@H](Cc3ccc(C(=O)O)cc3)NC2=O)c1 [Example 1431] ({CH2CO}-T[Phe(4-COOH)]D[Phe(3-Me)][Phe(4-COOH)][Bip][Phe(4-COOH)][NMeA][dL][Dab][Cha][Val(3-OH)]EC[Dab][AEEA][AEEA]-{NH(CH2)14COOH}; thioether N-14)
105	Cc1cccc(C[C@@H]2NC(=O)[C@H](CC(=O)O)NC(=O)[C@H](Cc3ccc(C(=O)O)cc3)NC(=O)[C@H]([C@@H](C)O)NC(=O)CSC[C@@H](C(=O)N[C@@H](CCN)C(=O)NCCOCCOCC(=O)NCCCCCCCCCCCCC(=O)O)NC(=O)[C@H](CCC(=O)O)NC(=O)[C@H](C(C)(C)O)NC(=O)[C@H](CC3CCCCC3)NC(=O)[C@H](CCN)NC(=O)[C@@H](CC(C)C)NC(=O)[C@H](C)N(C)C(=O)[C@H](Cc3ccc(C(=O)O)cc3)NC(=O)[C@H](Cc3ccc(-c4ccccc4)cc3)NC(=O)[C@H](Cc3ccc(C(=O)O)cc3)NC2=O)c1 [Example 1432] ({CH2CO}-T[Phe(4-COOH)]D[Phe(3-Me)][Phe(4-COOH)][Bip][Phe(4-COOH)][NMeA][dL][Dab][Cha][Val(3-OH)]EC[Dab][AEEA]-{NH(CH2)12COOH}; thioether N-14)
